Measured values taken from article PMC8413904 (Pharmacology Research & Perspectives, 2021).

What was measured:
[1] = target: T1, GluN1/2A (UniProt P35439+Q12879); assay: TEVC electrophysiology dose–response in xenopus oocytes; format: cell-based; details: 100 µM CNS4, −60 mV, average ± SEM
Text: (§4) NMDAR constructs: cDNA encoding the NMDAR1a subunit (GluN1a) was obtained from Dr. Nakanishi. cDNA encoding the GluN2B (pci_sepGluN2B) was developed initially in the Malinow lab[36] and purchased from Addgene (cat# 23998). cDNA encoding the GluN2C and GluN2D were purchased from GenScript. Mutated GluN1, 2A and 2B cDNA constructs capable of assembling as GluN1/2A/2B triheteromeric (1/2AB) receptors[37] were obtained from Dr. Paoletti (Laboratoire de Neurobiologie, CNRS). […] Plasmids were linearized with NotI (GluN1a) or Avrll (GluN2B), or BstB1 (GluN2C and GluN2D) and transcribed in vitro with T7 (GluN1a, GluN1/2A, GluN2B, GluN2C, & GluN2D) RNA polymerase using the mMessage mMachine transcription kits (Invitrogen by Thermo Fisher Scientific).
(§5) Stage IV frog oocytes were obtained from Xenopus‐I. NMDAR subunit cRNAs were suspended in nuclease‐free sterile water. GluN1A, GluN2B, GluN2C, GluN2D, and GluN1/2A/2B cRNAs were mixed in a ratio of 1:1–3. 50 nl of the final cRNA mixture was microinjected (40–70 ng total) into the oocyte cytoplasm. Oocytes were incubated in ND‐96 solution at 18^◦C prior to electrophysiological recordings (1–3 days).
Electrophysiological responses were measured using a standard two‐microelectrode voltage‐clamp workstation [Warner Instruments (Hamden, Connecticut) model OC‐725C] designed to provide a fast clamp of large cells. The recording buffer contained 116 mM NaCl, 2 mM KCl, 0.3 mM BaCl2, and 5 mM HEPES, pH 7.4. Response magnitude was determined in xenopus oocytes expressing different NMDAR subunits (GluN1/2A, 1/2B, 1/2C, 1/2D, and 1/2A/2B) by the steady plateau response elicited by bath application of different agonist concentrations. […] Response amplitudes for functional NMDARs were generally between 0.1 and 2 μA. […] Dose–response relationships were fit to an appropriate curve‐fitting equation using GraphPad Prism‐7. Nonlinear regression was used to calculate EC50 and/or percentage maximal response. Curve fittings were done using the following equations as performed in the previous studies[34], [39]: Y = 100/(1 + 10^(LogEC50‐X)) or Y = Bottom + (Top − Bottom)/(1+10^(LogEC50‐X)). Statistical significance was determined at the overall alpha level .05, using appropriate statistical methods as described in each figure captions.

[2] = tested on: cultured rat brain cortical neurons; assay: Dynamic calcium assay (Fluo‐8); format: cell-based
Procedure: (§1) All animal experimental procedures and housing have been approved by the Institutional Animal Care and Use Committee (IACUC) protocol #18‐015 of Virginia Tech. Embryonic day 18 (E18) rat brain tissue samples were obtained from adult pregnant SD rats. Rat brain primary cortical, striatal, and cerebellar neurons were cultured on poly‐d‐lysine coated 96‐well plates for 14 days in vitro (DIV14) before using for the experiments. Primary rat neuron culture was performed as previously published.[44] Briefly, each well of a 96 well plate was loaded with 50 000 cells and grown in 200 µl neurobasal media supplemented with B27, glutamax, penicillin, streptomycin. One hundred microliters of media was replaced with fresh media once in 4 days. Eight to thirteen fetus were obtained from each pregnant rat. Brain tissue from these fetus were pooled to obtain the neurons. Cortical, striatal, and cerebellar neuron assays were carried out at different time points.
Dynamic calcium assay was carried out, using Fluo‐8 no‐wash kit (abcam, ab112129), as per the manufacturer's instructions with minor modifications to fit with experimental necessities. On DIV14, all 200 μl of media was removed and replaced it with 100 μl of HBSS and 100 μl of Fluo‐8 dye loading solution. The plates were incubated at 37°C for 30 min and at room temperature for 30 min. […] Costar 96‐well clear bottom black side plates were read from the bottom, nine times, with 60 s intervals between each read. Temperature was set at 37°C and reading speed was 100 ms.

[3] = tested on: cultured rat brain cerebellar neurons; assay: Dynamic calcium assay (Fluo‐8); format: cell-based; details: 100 µM CNS4 plus 300 µM NMDA; p < .01 vs 300 µM NMDA (12810)
Procedure: as §1
(§2) Dynamic calcium assay was carried out, using Fluo‐8 no‐wash kit (abcam, ab112129), as per the manufacturer's instructions with minor modifications to fit with experimental necessities. On DIV14, all 200 μl of media was removed and replaced it with 100 μl of HBSS and 100 μl of Fluo‐8 dye loading solution. The plates were incubated at 37°C for 30 min and at room temperature for 30 min. A volume of 100 µL of test chemicals (3× of desired final concentration) was added to the plates immediately before running the calcium flux assay and read the fluorescence intensity at 490/525 nm (ex/em) using Synergy microplate reader, BioTek, VT. Costar 96‐well clear bottom black side plates were read from the bottom, nine times, with 60 s intervals between each read. Temperature was set at 37°C and reading speed was 100 ms.

[4] = tested on: cultured rat brain striatal neurons; assay: Dynamic calcium assay (Fluo‐8); format: cell-based
Procedure: as §1, §2

[5] = tested on: cultured rat brain cortical neurons; assay: Na^+ assay (CoroNa green‐AM); format: cell-based
Procedure: as §1
For Na^+ assay, DIV14 neurons were washed with HBSS and treated with freshly prepared CoroNa green‐AM dye (ThermoFisher, cat # C36676) and incubated for 45 min in 37°C. […] RFU values of background control and treatments were plotted to identify the effect of CNS4 on NMDA‐induced Na^+ flux in the neurons.

[6] = tested on: cultured rat brain cerebellar neurons; assay: Na^+ assay (CoroNa green‐AM); format: cell-based
Procedure: as §1
(§3) For Na^+ assay, DIV14 neurons were washed with HBSS and treated with freshly prepared CoroNa green‐AM dye (ThermoFisher, cat # C36676) and incubated for 45 min in 37°C. Plates were washed twice with HBSS before adding drug solutions dissolved in HBSS, and read at 492/516 nm (ex/em) using a plate reader. RFU values of background control and treatments were plotted to identify the effect of CNS4 on NMDA‐induced Na^+ flux in the neurons.

[7] = tested on: cultured rat brain striatal neurons; assay: Na^+ assay (CoroNa green‐AM); format: cell-based; details: 0.3 µM NMDA plus 100 µM CNS4; highest level
Procedure: as §1, §3

[8] = target: T2, GluN1/2C (UniProt P35439+Q14957); assay: TEVC electrophysiology dose–response in xenopus oocytes; format: cell-based; design: host or cells: Xenopus oocytes (cRNA injection)
Text: NMDAR constructs: cDNA encoding the NMDAR1a subunit (GluN1a) was obtained from Dr. Nakanishi. cDNA encoding the GluN2B (pci_sepGluN2B) was developed initially in the Malinow lab[36] and purchased from Addgene (cat# 23998). cDNA encoding the GluN2C and GluN2D were purchased from GenScript. Mutated GluN1, 2A and 2B cDNA constructs capable of assembling as GluN1/2A/2B triheteromeric (1/2AB) receptors[37] were obtained from Dr. Paoletti (Laboratoire de Neurobiologie, CNRS). […] Plasmids were linearized with NotI (GluN1a) or Avrll (GluN2B), or BstB1 (GluN2C and GluN2D) and transcribed in vitro with T7 (GluN1a, GluN1/2A, GluN2B, GluN2C, & GluN2D) RNA polymerase using the mMessage mMachine transcription kits (Invitrogen by Thermo Fisher Scientific). […]
Electrophysiological responses were measured using a standard two‐microelectrode voltage‐clamp workstation [Warner Instruments (Hamden, Connecticut) model OC‐725C] designed to provide a fast clamp of large cells. […] Response magnitude was determined in xenopus oocytes expressing different NMDAR subunits (GluN1/2A, 1/2B, 1/2C, 1/2D, and 1/2A/2B) by the steady plateau response elicited by bath application of different agonist concentrations. […] Statistical significance was determined at the overall alpha level .05, using appropriate statistical methods as described in each figure captions.

[9] = target: T3, GluN1/2D (UniProt O15399+P35439); assay: as above; format: cell-based; design: host or cells: Xenopus oocytes (cRNA injection)
Text: as §4, §5
Electrophysiological responses were measured using a standard two‐microelectrode voltage‐clamp workstation [Warner Instruments (Hamden, Connecticut) model OC‐725C] designed to provide a fast clamp of large cells. The recording buffer contained 116 mM NaCl, 2 mM KCl, 0.3 mM BaCl2, and 5 mM HEPES, pH 7.4. Response magnitude was determined in xenopus oocytes expressing different NMDAR subunits (GluN1/2A, 1/2B, 1/2C, 1/2D, and 1/2A/2B) by the steady plateau response elicited by bath application of different agonist concentrations. […] Response amplitudes for functional NMDARs were generally between 0.1 and 2 μA. […] Dose–response relationships were fit to an appropriate curve‐fitting equation using GraphPad Prism‐7. Nonlinear regression was used to calculate EC50 and/or percentage maximal response. […] Statistical significance was determined at the overall alpha level .05, using appropriate statistical methods as described in each figure captions.

[10] = target: T1, GluN1/2A; assay: Current–voltage (I–V) relationship, TEVC in xenopus oocytes
Procedure: (§6) GluN1A, GluN2B, GluN2C, GluN2D, and GluN1/2A/2B cRNAs were mixed in a ratio of 1:1–3. 50 nl of the final cRNA mixture was microinjected (40–70 ng total) into the oocyte cytoplasm. Oocytes were incubated in ND‐96 solution at 18^◦C prior to electrophysiological recordings (1–3 days).
(§7) After obtaining a steady‐state response to different agonist applications, agonist plus 100 μM CNS4 or agonist plus 40 μM MgCl2 plus 100 μM CNS4 was applied. […] Data points were aligned by least‐square fit by third‐order polynomial equation (Y = B0 + B1*X +B2*X ^2 + B3*X ^3), except for GluN1/2B that needed a fourth‐order polynomial equation.

[11] = target: T2, GluN1/2C; assay: as above
Procedure: as §6, §7

[12] = target: T3, GluN1/2D; assay: as above
Procedure: as §6, §7

[13] = 100 µM CNS4, 0.3 µM glutamate + 100 µM glycine, −60 mV, average ± SEM
[14] = higher concentration (100 & 300 µM) of glutamate, almost no effect
[15] = 100 µM CNS4, 100 µM glutamate + 100 µM glycine, −90 to +30 mv

T3 sequence (O15399 28-1336, other chains not shown): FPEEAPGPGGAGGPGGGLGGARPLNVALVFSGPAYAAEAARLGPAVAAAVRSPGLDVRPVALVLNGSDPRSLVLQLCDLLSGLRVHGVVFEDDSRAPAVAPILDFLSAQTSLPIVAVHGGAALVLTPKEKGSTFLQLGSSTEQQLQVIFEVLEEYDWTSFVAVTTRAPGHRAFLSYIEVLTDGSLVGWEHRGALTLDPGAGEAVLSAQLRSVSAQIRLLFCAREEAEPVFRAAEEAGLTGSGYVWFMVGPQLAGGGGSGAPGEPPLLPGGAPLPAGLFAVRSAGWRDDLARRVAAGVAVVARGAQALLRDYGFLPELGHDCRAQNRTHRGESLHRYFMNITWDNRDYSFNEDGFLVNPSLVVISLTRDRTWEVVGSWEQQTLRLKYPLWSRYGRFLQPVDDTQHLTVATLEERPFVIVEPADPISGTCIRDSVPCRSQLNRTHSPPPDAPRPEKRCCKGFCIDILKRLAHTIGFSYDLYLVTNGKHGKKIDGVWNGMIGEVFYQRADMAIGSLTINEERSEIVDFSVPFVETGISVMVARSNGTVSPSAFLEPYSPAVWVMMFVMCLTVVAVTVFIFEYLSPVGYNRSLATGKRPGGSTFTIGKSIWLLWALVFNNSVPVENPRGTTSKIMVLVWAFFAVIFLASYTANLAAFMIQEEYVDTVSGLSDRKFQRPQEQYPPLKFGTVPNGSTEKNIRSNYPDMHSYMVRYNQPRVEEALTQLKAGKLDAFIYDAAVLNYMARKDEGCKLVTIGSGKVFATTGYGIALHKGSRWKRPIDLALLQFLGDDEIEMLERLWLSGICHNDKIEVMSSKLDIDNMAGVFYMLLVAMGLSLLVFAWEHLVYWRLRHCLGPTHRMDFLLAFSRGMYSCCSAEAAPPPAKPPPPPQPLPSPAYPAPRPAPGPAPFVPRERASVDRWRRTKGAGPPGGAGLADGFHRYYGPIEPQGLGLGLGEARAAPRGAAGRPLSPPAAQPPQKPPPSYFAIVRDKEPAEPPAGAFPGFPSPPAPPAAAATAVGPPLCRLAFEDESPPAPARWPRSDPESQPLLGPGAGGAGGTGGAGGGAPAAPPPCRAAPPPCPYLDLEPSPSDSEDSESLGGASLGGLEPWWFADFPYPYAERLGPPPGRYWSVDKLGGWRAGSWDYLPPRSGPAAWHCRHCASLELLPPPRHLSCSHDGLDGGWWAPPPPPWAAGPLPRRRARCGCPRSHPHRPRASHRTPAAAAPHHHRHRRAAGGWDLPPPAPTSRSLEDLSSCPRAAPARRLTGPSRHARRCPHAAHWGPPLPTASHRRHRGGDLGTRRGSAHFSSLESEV
T1 sequence (Q12879 23-1464, other chains not shown): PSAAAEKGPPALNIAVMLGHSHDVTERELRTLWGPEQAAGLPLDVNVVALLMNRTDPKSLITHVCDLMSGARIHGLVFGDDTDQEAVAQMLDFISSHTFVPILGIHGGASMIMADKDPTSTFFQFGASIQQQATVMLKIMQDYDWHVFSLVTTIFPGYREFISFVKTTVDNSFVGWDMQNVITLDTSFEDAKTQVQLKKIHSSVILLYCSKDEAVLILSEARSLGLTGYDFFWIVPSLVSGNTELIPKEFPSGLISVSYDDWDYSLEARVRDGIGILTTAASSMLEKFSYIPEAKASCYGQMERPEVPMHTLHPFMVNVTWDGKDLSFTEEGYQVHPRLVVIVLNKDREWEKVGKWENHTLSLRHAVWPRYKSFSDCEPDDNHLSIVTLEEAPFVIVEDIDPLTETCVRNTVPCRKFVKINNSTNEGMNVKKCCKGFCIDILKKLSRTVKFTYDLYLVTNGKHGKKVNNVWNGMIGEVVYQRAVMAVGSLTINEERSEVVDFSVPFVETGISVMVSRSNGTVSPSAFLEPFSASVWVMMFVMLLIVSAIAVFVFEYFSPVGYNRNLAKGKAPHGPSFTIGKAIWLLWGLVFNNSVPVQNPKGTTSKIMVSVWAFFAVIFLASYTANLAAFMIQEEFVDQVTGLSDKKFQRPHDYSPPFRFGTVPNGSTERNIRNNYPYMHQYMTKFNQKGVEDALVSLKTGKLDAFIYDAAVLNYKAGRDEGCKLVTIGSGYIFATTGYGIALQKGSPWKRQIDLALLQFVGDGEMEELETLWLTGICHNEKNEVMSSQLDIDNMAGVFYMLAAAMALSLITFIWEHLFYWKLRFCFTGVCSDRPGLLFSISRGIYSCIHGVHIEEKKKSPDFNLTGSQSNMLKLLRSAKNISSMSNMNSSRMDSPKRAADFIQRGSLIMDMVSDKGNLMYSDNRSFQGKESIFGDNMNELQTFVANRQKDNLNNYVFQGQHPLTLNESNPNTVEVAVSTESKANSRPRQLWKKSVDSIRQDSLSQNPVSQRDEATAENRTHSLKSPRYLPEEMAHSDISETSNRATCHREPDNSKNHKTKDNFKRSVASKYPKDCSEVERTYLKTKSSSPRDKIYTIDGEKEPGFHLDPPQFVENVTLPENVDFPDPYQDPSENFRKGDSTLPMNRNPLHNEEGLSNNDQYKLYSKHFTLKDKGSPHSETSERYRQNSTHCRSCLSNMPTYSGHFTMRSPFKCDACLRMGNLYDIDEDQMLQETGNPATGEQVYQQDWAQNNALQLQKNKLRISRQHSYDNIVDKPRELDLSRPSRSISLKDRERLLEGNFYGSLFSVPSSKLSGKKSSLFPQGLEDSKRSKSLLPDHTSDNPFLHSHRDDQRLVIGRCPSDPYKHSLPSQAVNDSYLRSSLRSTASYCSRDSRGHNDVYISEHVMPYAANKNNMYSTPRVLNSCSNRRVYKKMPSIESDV
T2 sequence (Q14957 20-1233, other chains not shown): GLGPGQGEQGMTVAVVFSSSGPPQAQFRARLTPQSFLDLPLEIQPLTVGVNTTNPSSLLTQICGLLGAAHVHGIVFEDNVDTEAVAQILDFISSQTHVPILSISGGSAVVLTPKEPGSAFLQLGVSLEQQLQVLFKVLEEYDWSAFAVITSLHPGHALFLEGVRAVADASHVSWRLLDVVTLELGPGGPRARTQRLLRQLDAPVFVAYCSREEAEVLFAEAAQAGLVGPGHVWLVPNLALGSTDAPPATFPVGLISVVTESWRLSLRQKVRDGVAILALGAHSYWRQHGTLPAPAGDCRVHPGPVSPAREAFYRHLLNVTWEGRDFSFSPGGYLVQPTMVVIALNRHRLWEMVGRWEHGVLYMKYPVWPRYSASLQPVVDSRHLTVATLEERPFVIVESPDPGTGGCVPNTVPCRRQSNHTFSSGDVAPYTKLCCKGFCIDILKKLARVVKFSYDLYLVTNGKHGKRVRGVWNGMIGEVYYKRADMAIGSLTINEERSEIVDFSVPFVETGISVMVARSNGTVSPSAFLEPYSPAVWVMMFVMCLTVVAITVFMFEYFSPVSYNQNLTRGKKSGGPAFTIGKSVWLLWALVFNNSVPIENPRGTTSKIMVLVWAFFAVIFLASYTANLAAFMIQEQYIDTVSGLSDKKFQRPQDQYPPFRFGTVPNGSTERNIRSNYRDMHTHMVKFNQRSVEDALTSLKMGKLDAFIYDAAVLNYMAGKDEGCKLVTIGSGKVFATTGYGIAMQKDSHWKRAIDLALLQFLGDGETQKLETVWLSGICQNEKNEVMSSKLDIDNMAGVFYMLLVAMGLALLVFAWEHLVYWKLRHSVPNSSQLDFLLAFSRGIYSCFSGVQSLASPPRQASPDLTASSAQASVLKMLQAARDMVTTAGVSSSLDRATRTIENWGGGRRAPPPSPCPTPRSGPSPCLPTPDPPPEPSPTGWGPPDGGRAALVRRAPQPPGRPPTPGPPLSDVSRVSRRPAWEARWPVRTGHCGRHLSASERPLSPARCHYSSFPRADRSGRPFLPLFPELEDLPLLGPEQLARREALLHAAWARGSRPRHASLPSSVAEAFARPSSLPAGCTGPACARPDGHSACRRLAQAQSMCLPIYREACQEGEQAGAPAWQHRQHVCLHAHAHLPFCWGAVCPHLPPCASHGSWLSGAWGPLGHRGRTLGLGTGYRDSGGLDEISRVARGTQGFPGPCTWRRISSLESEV

## O=C(NC(=S)N1CCCCC1c1cccnc1)c1ccc(F)cc1 (stereo not shown) [CNS4, 4‐fluoro‐N‐(2‐(pyridin‐3‐yl)piperidine‐1‐carbonothioyl)benzamide]
[1]; 0.3 µM glutamate + 100 µM glycine
  current response, agonist alone induced maximum current normalized to 100%: negligible effect
[1]; 100 µM glutamate + 100 µM glycine
  current response, agonist alone induced maximum current normalized to 100%: 186.08% ± 23.5%
[1]; 300 µM glutamate + 100 µM glycine
  current response, agonist alone induced maximum current normalized to 100%: 122.87% ± 9.9%
[2]; 100 µM CNS4 + 10 µM or higher concentrations of NMDA
  calcium signals compared to CNS4 alone treated cells: significantly increased calcium signals
[2]; 100 µM CNS4 + 100 µM GABA, p < .001 vs GABA alone (4196)
  Ca^2+ signal, mean rfu: 5124 rfu
[2]; 100 µM CNS4 + 100 µM acetylcholine, p < .0001 vs acetylcholine alone (6222)
  Ca^2+ signal, mean rfu: 8082 rfu
[2]; 100 µM CNS4 + 100 µM glutamate + 50 µM MK801, p = .7757 vs glutamate + MK801 (7997)
  Ca^2+ signal, mean rfu: 8359 rfu
[2]; 100 µM CNS4 in the presence of 0.3, 1, 3 µM NMDA
  Ca^2+ signal compared to background: did not increase Ca^2+ signal
[2]; 100 µM CNS4 in vehicle (HBSS) with no NMDA, Figure 6A
  Ca^2+ signal without NMDA: no significant Ca^2+ signal
[2]; 100 µM CNS4 plus 300 µM NMDA
  more Ca^2+ signal compared to plain 300 µM NMDA: 43%
[2]; 100 µM CNS4 plus 300 µM NMDA, p < .0001 vs 300 µM NMDA alone (26711)
  Ca^2+ signal, mean rfu: 38274 rfu
[3]
  Ca^2+ signal, rfu: 14423 rfu
[4]; 100 µM CNS4 in vehicle, no NMDA, background control 13964, p < .0001
  Ca^2+ signal, mean rfu: 6317 rfu
[4]; 100 µM CNS4 plus 300 µM NMDA
  CNS4 induced potentiation of Ca^2+ signal vs 300 µM NMDA: 86%
[4]; 100 µM CNS4 plus 300 µM NMDA, p < .0001 vs 300 µM NMDA alone (20964)
  Ca^2+ signal, mean rfu: 39001 rfu
[5]; 100 µM CNS4 + 0.3 µM NMDA, p < .0001 vs CNS4 with no NMDA (412544)
  Na^+ signal, mean rfu: 391591 rfu
[5]; 100 µM CNS4 + 30–300 µM NMDA
  Na^+ signal compared to 300 µM NMDA alone: significantly higher Na^+ signal
[5]; 100 µM CNS4 + glutamate + MK801, p = .0024 vs glutamate + MK801 ([…])
  Na^+ signal, mean rfu: 519331 rfu
[5]; 100 µM CNS4 alone, Figure 8B
  Na^+ signal, mean rfu: 538755 rfu
[5]; 100 µM CNS4 with no NMDA, Figure 7A
  Na^+ signal, mean rfu: 412544 rfu
[6]; 0.3 µM NMDA plus 100 µM CNS4, highest level
  Na^+ signal: 420668 rfu
[6]; 100 µM CNS4 alone, Figure 7C
  Na^+ signal: significantly increased
[7]
  Na^+ signal: 426039 rfu
[8]; [13]
  current response, agonist alone induced maximum current normalized to 100%: 506.34% ± 52.9%
[8]; [14]
  potentiation of receptor current: < 20%
[9]; [13]
  current response, agonist alone induced maximum current normalized to 100%: 850.35% ± 133.9%
[9]; [14]
  potentiation of receptor current: < 20%
[10]; [15]
  voltage dependence of effect on current amplitude: no voltage dependence effect
[10]; agonist (100 µM glutamate + 100 µM glycine) + 40 µM MgCl2 + 100 µM CNS4, without CNS4 −20.06 ± 2.6, p > .05
  reversal potential: −17.57 ± 2.0 mv
[10]; agonist (100 µM glutamate + 100 µM glycine) + 100 µM CNS4, absence of Mg^2+, agonist alone −17.42 ± 2.2, p > .05
  reversal potential: −17.54 ± 1.8 mv
[11]; 0.3 µM glutamate + 100 µM glycine + CNS4, absence of Mg2+, without CNS4 -86.44± 0.74, p<0.0001, n=7
  inward current reversal potential: -75.15±1.33 mv
[11]; 0.3 µM glutamate + 100 µM glycine + CNS4, presence of Mg2+, without CNS4 -88.59± 0.30, p<0.001, n=7
  inward current reversal potential: -79.25±1.87 mv
[11]; [15]
  voltage dependence of effect on current amplitude: no voltage dependence effect
[11]; agonist (100 µM glutamate + 100 µM glycine) + 40 µM MgCl2 + 100 µM CNS4, without CNS4 −81.75 ± 1.37, p < .01
  reversal potential: −75.53 ± 0.59 mv
[11]; agonist (100 µM glutamate + 100 µM glycine) + 100 µM CNS4, absence of Mg^2+, agonist alone −69.55 ± 1.51, p < .01
  reversal potential: −63.64 ± 0.80 mv
[12]; 0.3 µM glutamate + 100 µM glycine + CNS4, absence of Mg2+, without CNS4 -84.35± 0.42, p<0.0001, n=6
  inward current reversal potential: -72.52±0.85 mv
[12]; 0.3 µM glutamate + 100 µM glycine + CNS4, presence of Mg2+, without CNS4 -88.29± 0.35, p<0.0001, n=6
  inward current reversal potential: -77.88±0.87 mv
[12]; [15]
  voltage dependence of effect on current amplitude: no voltage dependence effect
[12]; agonist (100 µM glutamate + 100 µM glycine) + 40 µM MgCl2 + 100 µM CNS4, without CNS4 −75.8 ± 5.51, p > .05
  reversal potential: −72.58 ± 3.08 mv
[12]; agonist (100 µM glutamate + 100 µM glycine) + 100 µM CNS4, absence of Mg^2+, agonist alone −54.2 ± 4.5, p > .05
  reversal potential: −56.05 ± 5.8 mv
